The source of these data is patent publication US6380230B1, “Carboxamidothiazole derivatives, preparation, pharmaceutical compositions containing them” (Sanofi-Synthelabo, priority 1997, dated 2002).

Assay [1] concerns the target T1, human CCK-A receptor (Homo sapiens, UniProt P32238).
T1 construct: expressed in transfected cells; host or cells: 3T3 cells
T1 sequence (P32238 1-428): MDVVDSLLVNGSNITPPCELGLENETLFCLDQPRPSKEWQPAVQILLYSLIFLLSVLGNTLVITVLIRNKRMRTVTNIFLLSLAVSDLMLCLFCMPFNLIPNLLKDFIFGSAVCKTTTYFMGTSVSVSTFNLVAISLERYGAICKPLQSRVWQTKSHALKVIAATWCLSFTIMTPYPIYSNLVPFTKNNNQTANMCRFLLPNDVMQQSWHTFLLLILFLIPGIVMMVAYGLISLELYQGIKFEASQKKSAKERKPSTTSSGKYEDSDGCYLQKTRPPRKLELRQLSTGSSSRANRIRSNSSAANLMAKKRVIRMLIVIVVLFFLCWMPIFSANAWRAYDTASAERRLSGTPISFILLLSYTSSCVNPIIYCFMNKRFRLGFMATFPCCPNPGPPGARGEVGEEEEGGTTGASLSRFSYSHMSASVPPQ
Nature of the assay: mobilization of intracellular calcium ([Ca++]i, Fura-2) in 3T3 cells expressing the human CCK-A receptor. The class given is cell-based. Here is the method:
The calcium concentration [Ca^++]i is evaluated with Fura-2 as fluorescent probe, by the double excitation wavelength method. The ratio of the fluorescence emitted at two wavelengths gives the concentration of [Ca^++]i after calibration (Grynkiewicz G. et al., J. Biol. Chem., 1985, 260, 3440-3450).
Background: Calcium assays in cells follow changes in intracellular calcium, usually with a dye or a luminescent sensor.

In assay [2] the test system is Female Swiss albino CD1 mice. Nature of the assay: gastric drainage (charcoal meal) in mice, intraperitoneal administration. The class given is in vivo. As to conditions: intraperitoneally. As to the method: The compounds of the present invention were also studied in vivo, by evaluating their capacity to block gastric drainage in mice.
A study of the agonist effect of the compounds on gastric drainage was carried out as follows. Female Swiss albino CD1 mice (20-25 g) are placed on a solid fast for 18 hours. On the day of the experiment, the products (as a suspension in 1% carboxymethyl cellulose solution or in 0.6% methylcellulose solution) or the corresponding vehicle are administered intraperitoneally, 30 minutes before administering a charcoal meal (0.3 ml per mouse of a suspension in water of 10% charcoal powder, 5% gum arabic and 1% carboxymethyl cellulose or 0.6% methyl cellulose). The mice are sacrificed five minutes later by cervical dislocation, and gastric drainage is defined as the presence of charcoal in the intestine beyond the pyloric sphincter (Eur. J. Pharmacol., 1993, 232, 13-19).

The target in the next assay is T2, human CCK-B receptor (Homo sapiens, UniProt P32239).
T2 sequence (P32239 1-447): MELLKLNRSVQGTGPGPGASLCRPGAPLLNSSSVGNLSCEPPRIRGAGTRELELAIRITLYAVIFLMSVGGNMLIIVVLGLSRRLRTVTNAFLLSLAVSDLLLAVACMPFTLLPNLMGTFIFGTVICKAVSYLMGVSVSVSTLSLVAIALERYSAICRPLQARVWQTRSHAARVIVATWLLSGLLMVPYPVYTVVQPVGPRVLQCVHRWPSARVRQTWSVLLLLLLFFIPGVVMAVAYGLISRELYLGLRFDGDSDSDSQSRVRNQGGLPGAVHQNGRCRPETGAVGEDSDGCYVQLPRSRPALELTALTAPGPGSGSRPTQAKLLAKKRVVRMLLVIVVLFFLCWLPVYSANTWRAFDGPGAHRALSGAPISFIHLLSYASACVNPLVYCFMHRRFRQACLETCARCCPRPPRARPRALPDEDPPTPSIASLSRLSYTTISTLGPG
Nature of the assay: in vitro binding to the human CCK-B receptor. The note with it: read-out: affinity for the human CCK-B receptor (IC50).

Assay [3] addresses T1, human CCK-A receptor. Kind of assay: displacement of [125I]-CCK from 3T3 cells expressing the human CCK-A recombinant receptor. The class given is binding. The note with it: read-out: affinity for the human CCK-A receptor (IC50). For orientation: Loss of bound radioactivity is the signal in a displacement assay; it reports binding, not function.

As to `COc1cc(-c2nc(NC(=O)c3cc4cc(C)cc(C)c4n3CC(=O)O)sc2CCC2CCCCC2)c(OC)cc1Cl.O=C(O)C(F)(F)F` [Example 5, 2-(4-(4-Chloro-2,5-dimethoxyphenyl)-5-(2-cyclohexylethyl)-2-thiazolylcarbamoyl)-5,7-dimethyl-1-indoleacetic acid trifluoroacetic acid.], the “agonist behaviour on intracellular calcium relative to CCK” value at human CCK-A receptor [1] (increase to the same level as CCK itself) is “total agonist”. Moreover, the EC50 at human CCK-A receptor [1] (read-out: EC50 (effective concentration which induces 50% of the effect of CCK) for increase in intracellular calcium concentration, 3T3 cells expressing human CCK-A receptor) came to 1.27 nM. For the same compound, in assay [2], the “ED50 on gastric drainage” value was 1.9 µg/kg and the “effect on gastric drainage” value was “completely inhibits gastric drainage”. The IC50 (commonly the concentration needed to halve the response being measured) at human CCK-B receptor was 162 nM. In addition, the IC50 at human CCK-A receptor [3] was found to be 0.56 nM.
